The text below walks through data of US20240199546A1, “INHIBITORS OF SOLUTE CARRIER FAMILY 6A MEMBER 19 (SLC6A19) AND METHODS OF USE THEREOF” (Maze Therapeutics, Inc., priority 2022, published 2024).

This assay addresses T1, human SLC6A19 and TMEM27 (Homo sapiens, UniProt Q695T7).
T1 construct: expressed in transfected cells
T1 sequence (Q695T7 1-634): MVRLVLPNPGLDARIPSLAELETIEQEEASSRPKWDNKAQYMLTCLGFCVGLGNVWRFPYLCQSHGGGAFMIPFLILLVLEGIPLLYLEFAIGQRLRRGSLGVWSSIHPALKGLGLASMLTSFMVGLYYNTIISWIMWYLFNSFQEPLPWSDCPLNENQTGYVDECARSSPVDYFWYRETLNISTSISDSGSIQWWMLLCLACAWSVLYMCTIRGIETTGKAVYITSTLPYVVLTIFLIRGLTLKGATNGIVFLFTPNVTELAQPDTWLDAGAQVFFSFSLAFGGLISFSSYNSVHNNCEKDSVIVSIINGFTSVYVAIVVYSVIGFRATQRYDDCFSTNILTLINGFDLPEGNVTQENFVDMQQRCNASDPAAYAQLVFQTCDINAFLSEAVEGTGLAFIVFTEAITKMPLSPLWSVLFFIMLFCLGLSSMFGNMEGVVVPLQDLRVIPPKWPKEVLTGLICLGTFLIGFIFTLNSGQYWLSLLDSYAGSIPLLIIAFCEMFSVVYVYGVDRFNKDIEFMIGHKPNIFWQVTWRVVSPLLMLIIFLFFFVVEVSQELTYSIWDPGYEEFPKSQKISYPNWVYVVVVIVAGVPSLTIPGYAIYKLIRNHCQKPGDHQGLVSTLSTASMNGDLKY
T1 sequence (Q9HBJ8 15-222 partner): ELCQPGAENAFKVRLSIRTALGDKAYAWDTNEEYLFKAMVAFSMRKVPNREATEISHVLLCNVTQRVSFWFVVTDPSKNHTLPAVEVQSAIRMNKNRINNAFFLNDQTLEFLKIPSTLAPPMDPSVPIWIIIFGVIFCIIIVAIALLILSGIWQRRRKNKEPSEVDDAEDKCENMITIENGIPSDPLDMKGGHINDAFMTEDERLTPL
Put plainly: Radiolabelled (3H) leucine uptake in CHO cells with doxycycline-inducible expression of human SLC6A19 and TMEM27 (Example B-1). Type of assay: cell-based. The settings on record: CHO cells with doxycycline-inducible expression of human SLC6A19 and TMEM27, read-out: SLC6A19_Radioligand Uptake Assay IC50. Summed up: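 CHO cells were induced with doxycycline for 18 h at 37 °C, washed in HBSS, then exposed to compounds for 1 h: 8-point, 3-fold dilutions in duplicate, 0.5% DMSO final. Uptake measured by scintillation counting after 2 h shaking. Activity normalized with positive control as 0% and DMSO as 100%.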
One may read the IC50 as the concentration that inhibits the measured activity by half. Take `O=C(NCc1cc2cc(Cl)c(OCc3ccon3)cc2[nH]1)C1CC(F)(F)C1` [Compound 491, N-((5-chloro-6-(isoxazol-3-ylmethoxy)-1H-indol-2-yl)methyl)-3,3-difluorocyclobutane-1-carboxamide]: the IC50 was determined as 814 nM.
As for `O=C(NCc1cc2cc(Cl)c(OCc3ccon3)cc2[nH]1)C1CCCC1` [Compound 492, N-((5-chloro-6-(isoxazol-3-ylmethoxy)-1H-indol-2-yl)methyl)cyclopentanecarboxamide], the figure is 359 nM.
For the molecule `O=C(NCc1cc2cc(F)c(OCc3ccccn3)cc2[nH]1)C1CC1` [Compound 505, N-((5-fluoro-6-(pyridin-2-ylmethoxy)-1H-indol-2-yl)methyl)cyclopropanecarboxamide], the IC50 amounted to 203 nM.
As for `CC1(C(=O)NCc2cc3cc(Cl)c(OCc4cscn4)cc3[nH]2)CCC1` [Compound 506, N-((5-chloro-6-(thiazol-4-ylmethoxy)-1H-indol-2-yl)methyl)-1-methylcyclobutane-1-carboxamide], the figure is 331 nM.
As for `CC1(C(=O)NCc2cc3cc(F)c(OCc4cscn4)cc3[nH]2)CCC1` [Compound 507, N-((5-fluoro-6-(thiazol-4-ylmethoxy)-1H-indol-2-yl)methyl)-1-methylcyclobutane-1-carboxamide], the figure is 327 nM.
With `CC1(C(=O)NCc2cc3cc(OC(F)(F)F)c(OCc4ccon4)cc3[nH]2)CC1` [Compound 508, N-((6-(isoxazol-3-ylmethoxy)-5-(trifluoromethoxy)-1H-indol-2-yl)methyl)-1-methylcyclopropane-1-carboxamide], the IC50 amounted to 293 nM.
For `CC1(C(=O)NCc2cc3cc(OC(F)(F)F)c(CCc4cscn4)cc3[nH]2)CC1` [Compound 509, 1-methyl-N-((6-(2-(thiazol-4-yl)ethyl)-5-(trifluoromethoxy)-1H-indol-2-yl)methyl)cyclopropane-1-carboxamide], the IC50 amounted to 1520 nM.
Take `CC1(C(=O)NCc2cc3cc(OC(F)(F)F)c(CCc4ccon4)cc3[nH]2)CC1` [Compound 510, N-((6-(2-(isoxazol-3-yl)ethyl)-5-(trifluoromethoxy)-1H-indol-2-yl)methyl)-1-methylcyclopropane-1-carboxamide]: the IC50 was 385 nM.
The value for `O=C(CN1CCC1)NCc1cc2cc(Cl)c(OCc3cscn3)cc2[nH]1` [Compound 512, 2-(azetidin-1-yl)-N-((5-chloro-6-(thiazol-4-ylmethoxy)-1H-indol-2-yl)methyl)acetamide] was 6780 nM; that for `O=C(CC(F)F)NCc1cc2cc(Cl)c(OCc3cscn3)cc2[nH]1` [Compound 513, N-((5-chloro-6-(thiazol-4-ylmethoxy)-1H-indol-2-yl)methyl)-3,3-difluoropropanamide] was 86.2 nM; that for `CC1(C(=O)NCc2cc3cc(OC(F)(F)F)c(CCc4cocn4)cc3[nH]2)CC1` [Compound 514, 1-methyl-N-((6-(2-(oxazol-4-yl)ethyl)-5-(trifluoromethoxy)-1H-indol-2-yl)methyl)cyclopropane-1-carboxamide] was 408 nM.
The value for `CCC(=O)NCc1cc2c(F)cc(OCc3cscn3)cc2[nH]1` [Compound 515, N-((4-fluoro-6-(thiazol-4-ylmethoxy)-1H-indol-2-yl)methyl)propionamide] was 116 nM; that for `O=C(CC(F)F)NCc1cc2cc(F)c(OCc3cscn3)cc2[nH]1` [Compound 516, 3,3-difluoro-N-((5-fluoro-6-(thiazol-4-ylmethoxy)-1H-indol-2-yl)methyl)propanamide] was 88.9 nM; that for `CCC(=O)NCc1cc2c(F)cc(OCc3ccon3)cc2[nH]1` [Compound 517, N-((4-fluoro-6-(isoxazol-3-ylmethoxy)-1H-indol-2-yl)methyl)propionamide] was 243 nM.
For `Cc1cc(COc2cc3[nH]c(CNC(=O)CC(F)F)cc3cc2F)on1` [Compound 518, 3,3-difluoro-N-((5-fluoro-6-((3-methylisoxazol-5-yl)methoxy)-1H-indol-2-yl)methyl)propanamide], the IC50 was 179 nM.
As for `Cc1cc(COc2cc3[nH]c(CNC(=O)CC(F)F)cc3cc2Cl)on1` [Compound 519, N-((5-chloro-6-((3-methylisoxazol-5-yl)methoxy)-1H-indol-2-yl)methyl)-3,3-difluoropropanamide], the figure is 118 nM; as for `Cc1cc(COc2cc3[nH]c(CNC(=O)Cn4ccnn4)cc3cc2Cl)on1` [Compound 520, N-((5-chloro-6-((3-methylisoxazol-5-yl)methoxy)-1H-indol-2-yl)methyl)-2-(1H-1,2,3-triazol-1-yl)acetamide], 6730 nM; as for `Cc1cc(COc2cc3[nH]c(CNC(=O)Cn4cccn4)cc3cc2Cl)on1` [Compound 521, N-((5-chloro-6-((3-methylisoxazol-5-yl)methoxy)-1H-indol-2-yl)methyl)-2-(1H-pyrazol-1-yl)acetamide], over 7970 nM.
The value for `Cc1cc(COc2cc3[nH]c(CNC(=O)c4ccno4)cc3cc2Cl)on1` [Compound 522, N-((5-chloro-6-((3-methylisoxazol-5-yl)methoxy)-1H-indol-2-yl)methyl)isoxazole-5-carboxamide] was 199 nM; that for `CC(=O)NCc1cc2c(F)cc(OCc3cscn3)cc2[nH]1` [Compound 525, N-((4-fluoro-6-(thiazol-4-ylmethoxy)-1H-indol-2-yl)methyl)acetamide] was 157 nM; that for `CC1(C(=O)NCc2cc3c(F)c(F)c(OCc4cscn4)cc3[nH]2)CC1` [Compound 526, N-((4,5-difluoro-6-(thiazol-4-ylmethoxy)-1H-indol-2-yl)methyl)-1-methylcyclopropane-1-carboxamide] was 156 nM.
With `CC(=O)NCc1cc2c(F)cc(OCc3cc(C)no3)cc2[nH]1` [Compound 527, N-((4-fluoro-6-((3-methylisoxazol-5-yl)methoxy)-1H-indol-2-yl)methyl)acetamide], the IC50 was found to be 4610 nM.
Turning to `Cc1cc(COc2cc3[nH]c(CNC(=O)[C@@H](C)CO)cc3cc2Cl)on1` [Compound 535, (S)-N-((5-chloro-6-((3-methylisoxazol-5-yl)methoxy)-1H-indol-2-yl)methyl)-3-hydroxy-2-methylpropanamide], the IC50 worked out at 1650 nM.
As for `Cc1cc(COc2cc3[nH]c(CNC(=O)[C@H](C)CO)cc3cc2Cl)on1` [Compound 536, (R)-N-((5-chloro-6-((3-methylisoxazol-5-yl)methoxy)-1H-indol-2-yl)methyl)-3-hydroxy-2-methylpropanamide], the figure is 1360 nM; as for `Cc1cc(COc2cc3[nH]c(CNC(=O)[C@@H]4C[C@H]4F)cc3cc2Cl)on1` [Compound 537, (1S,2R)-N-((5-chloro-6-((3-methylisoxazol-5-yl)methoxy)-1H-indol-2-yl)methyl)-2-fluorocyclopropane-1-carboxamide], 108 nM; as for `Cc1cc(COc2cc3[nH]c(CNC(=O)[C@H]4C[C@@H]4F)cc3cc2Cl)on1` [Compound 538, (1R,2S)-N-((5-chloro-6-((3-methylisoxazol-5-yl)methoxy)-1H-indol-2-yl)methyl)-2-fluorocyclopropane-1-carboxamide], 59.4 nM.
In the case of `Cc1cc(COc2cc3[nH]c(CNC(=O)[C@H]4C[C@H]4F)cc3cc2Cl)on1` [Compound 539, (1R,2R)-N-((5-chloro-6-((3-methylisoxazol-5-yl)methoxy)-1H-indol-2-yl)methyl)-2-fluorocyclopropane-1-carboxamide], the IC50 amounted to 123 nM.
The value for `Cc1cc(COc2cc3[nH]c(CNC(=O)[C@@H]4C[C@@H]4F)cc3cc2Cl)on1` [Compound 540, (1S,2S)-N-((5-chloro-6-((3-methylisoxazol-5-yl)methoxy)-1H-indol-2-yl)methyl)-2-fluorocyclopropane-1-carboxamide] was 131 nM; that for `O=C(NCc1cc2cc(Cl)c(OCc3cscn3)cc2[nH]1)[C@H]1C[C@H]1F` [Compound 541, (1R,2R)-N-((5-chloro-6-(thiazol-4-ylmethoxy)-1H-indol-2-yl)methyl)-2-fluorocyclopropane-1-carboxamide] was 141 nM.
For `O=C(NCc1cc2cc(Cl)c(OCc3cscn3)cc2[nH]1)[C@@H]1C[C@@H]1F` [Compound 542, (1S,2S)-N-((5-chloro-6-(thiazol-4-ylmethoxy)-1H-indol-2-yl)methyl)-2-fluorocyclopropane-1-carboxamide], the IC50 worked out at 123 nM.
As for `O=C(NCc1cc2cc(Cl)c(OCc3cscn3)cc2[nH]1)[C@@H]1C[C@H]1F` [Compound 543, (1S,2R)-N-((5-chloro-6-(thiazol-4-ylmethoxy)-1H-indol-2-yl)methyl)-2-fluorocyclopropane-1-carboxamide], the figure is 145 nM.
